According to patent US6482856B1, “Method and composition for treating mammalian disease caused by inflammatory response” (Cellular Sciences, Inc., priority 1995, dated 2002):
Like-named read-outs stand apart in the source and are kept apart here.

Experiments:
[1] = system: emphysema and restrictive airway disease; experiment: Inhalation of nebulized sodium pyruvate solution by a patient; lung capacity and lung function tests; type: in vivo, human
Description: Subject: A person suffering from emphysema and restrictive airway disease was treated as described below for three (3) months.
Treatment: The treatment was conducted as follows: Five (5) milliliters of five (5) millimolar sodium pyruvate solution is filter sterilized through a 0.2 micron filter. The sterile pyruvate solution is placed into a “Pulmo Aid” nebulizer manufactured by DeVilbiss Co., Somerset, Pa. 15501-0635. The sterile pyruvate solution is nebulized by the Pulmo Aid device fitted with a disposable nebulizer and inhaled by the patient. The patient inhales normally from the Pulmo Aid nebulizer until all of the solution has been nebulized and inhaled. This inhalation step typically takes about ten (10) to twenty (20) minutes.
The patient is treated with this inhalation therapy periodically. Initially, treatments are about four (4) times a day at about six (6) hour intervals. Treatments were reduced to three (3) times a day at about eight (8) hour intervals after 30 days of therapy. Treatments were further reduced to once a day 60 DAYS AFTER ONSET OF TREATMENT. After ninety (90) days treatments are three to five times a week.

gastric mucosa [2] = conditions: guinea pigs; caused by acetylsalicylic acid; cited from earlier work
gastric mucosa [3] = conditions: rats; caused by acetylsalicylic acid; cited from earlier work
cyanide intoxication = conditions: in vivo; cited from earlier work
sodium sulfide = conditions: in vivo; cited from earlier work
[4] = system: acrylamide neuropathy of axons; conditions: in vivo; cited from earlier work
L1210 leukemia = conditions: advanced L1210 leukemia; cited from earlier work
urinary calculi (stones) = conditions: rats fed calcium-oxalate lithogenic diet, versus control rats; cited from earlier work
[5] = system: bacterial and yeast systems; conditions: cited from earlier work
[6] = twenty to thirty minutes after initial treatment

For `CC(=O)C(=O)[O-].[Na+]` [sodium pyruvate], the “MVV (maximum ventilatory volume)” value ([1]; After Two Months Treatment, Before: 19) was 25, the “DCO (diffusion of carbon monoxide)” value ([1]; After Two Months Treatment, Before: 27) was 39 MI/min/mm Hg and the “DSB (diffusion single breath)” value ([1]; After Two Months Treatment, Before: 42) was 52. The “ERV (expiratory reserve volume)” value ([1]; After Two Months Treatment, Before: 62) was 110, the “IC (inspiratory capacity)” value ([1]; After Two Months Treatment, Before: 64) was 69 and the “O SAT (oxygen saturation)” value ([1]; After Two Months Treatment, Before: 91) was 95. The “SVC (slow vital capacity)” value ([1]; After Two Months Treatment, inhaled 5 ml of 5 millimolar solution, Before: 63) was 83, the “overall condition of the subject” value ([1]; after three (3) months treatment) was “marked improvement” and the Improved lung function ([1]; conclusion of the treatment) was 20%. The “Increased exercise tolerance, tested and certified” value ([1]; conclusion of the treatment) was “close to that of a person without emphysema and restrictive airway disease”, the Mental attitude ([1]; conclusion of the treatment) was “greatly improved” and the Reactive airway disease ([1]; conclusion of the treatment) was “reduced to the point that routine use of inhalers is not needed”. For the same compound, the “recurrence of decreased pulmonary functions” value ([1]; conclusion of the treatment) was “No recurrence”, the exercise tolerance [1, 6] was “increase” and the tidal volume [1, 6] was “increases”. For the same compound, the wheezing [1, 6] was “stops”, the Use of oxygen ([1]; when treatment started) was “eliminated immediately” and the overall results ([1]; within two (2) weeks) was “dramatic results”. The “number of erosions, ulcers, and hemorrhages on the gastric mucosa” value (gastric mucosa [2]) was “reduce”, the “number of erosions, ulcers, and hemorrhages on the gastric mucosa” value (gastric mucosa [3]) was “reduce” and the “effect on cyanide intoxication” value (cyanide intoxication) was “antagonist”. For the same compound, the “effect on lethal effects of sodium sulfide” value (sodium sulfide) was “protect”, the “onset and development of functional, morphological, and biochemical measures of acrylamide neuropathy” value [4] was “retard” and the “abnormally deformed red blood cells” value (L1210 leukemia) was “restore abnormally deformed red blood cells to normal”. For the same compound, the “urinary calculi (stones)” value (urinary calculi (stones)) was “fewer”, the growth [5] was “enhance” and the hydrogen peroxide production [5] was “inhibit”. For the same compound, the “toxicity of reactive oxygen intermediates” value [5] was “protect”.
